Here are results for one compound from patent publication US4863969A, “Treatment of premalignant lesions and certain malignant tumors” (priority 1985, dated 1989).

A short description of data set [1]: Triglyceride / lipid value in blood plasma of rats. It is filed as in vivo, albino rats. The procedure: In order to detect this activity a dosage of compound Ia was administered five times per dosage to 5 male and 5 female albino rats weighing approximately 150 g by means of a probang within 2 days in intervals of in each case 18 and 6 hours. 18 hours after the last application 1-1,2 ml of blood plasma were removed retroorbitally from the experimental animals. The triglyceride value was determined by enzymatic cleavage of the triglyceride with subsequent determination of the resulting glycerine (colour reaction) by means of Periodchrom triglyceride GPO-PAP.

The test system of data set [2] is Trachea (rats)/hyperplasia induced by dimethylbenzanthracene. The data set is described as follows: Chemically-induced precancerous tissue changes in trachea organ culture (dimethylbenzanthracene-induced hyperplasia). It is filed as cell-based. Particulars: Rattus norvegicus, read-out: Mitotic index, relative to dimethylbenzanthracene control; for activity at 1 µM: 10^-6 M; for activity at 0.1 µM: 10^-7 M; for activity at 0.01 µM: 10^-8 M; for activity at 0.001 µM: 10^-9 M. The procedure:
(D) The activity of compound Ia on chemically-induced precancerous tissue changes was, furthermore, determined in vitro according to the following method. In this experiment prostate glands of mice and trachea of rats cultivated in organ cultures served as the experimental models. In tissues of organ cultures carcinogenic substances bring about after a short period precancerous changes in the form hyperplasias as well as metaplasias and dysplasias. Retinoids, which are administered simultaneously with the carcinogenic compounds or after these, prevent the hyperplasia or metaplasia and dysplasia or even cause these to regress.
The prostate glands consist of alveoli lined with one row of secretory cells and separated by a thin connective tissue. They were removed from mice aged 3-5 months and cut into lobules of approximately 1.5×1.5×2.0 mm. At least six of these lobules were placed on filter paper and transferred on a metal lattice into small culture chambers. Two of these culture chambers were enclosed in a Petri dish lined with a moist filter paper. The culture chambers were filled with nutrient medium up to the height of the lattice so that the explants were moistened well with the nutrient medium, but were not immersed in this. At the nutrient medium there was used customary Medium 199 supplemented by the addition of 15% serum from newly born calves. The carcinogen (3-methylcholanthrene) was added to this prior to the incubation in a concentration of 4-5 μg/ml of nutrient medium. The cultures were then incubated at 37.5° C. During the incubation they were kept in a Macintosh flask which was gassed with a mixture of 5% CO2 +95% oxygen. In a first series of experiments the carcinogen and compound Ia were combined and the tissue was cultivated for 10-12 days. In a second series the explants were pre-treated with the carcinogen for 10-12 days and thereafter placed in a nutrient medium, which only contained compound Ia, for 4-7 days. The concentration of compound Ia lay in the range of 10^-9 to 10^-6 Mol.
Trachea of rats are cultivated in the same manner and treated with dimethylbenzanthracene as the carcinogen. The mitotic index serves as the parameter of the hyperplasia. With retinoid the mitotic index and the hyperplasias, respectively, are smaller. The results are compiled in Tables IV (prostate) and V (trachea).

Where [3] appears, read: simultaneous treatment, dimethylbenzanthracene (mitotic index 2.6) = 100%.
Where [4] appears, read: subsequent treatment, dimethylbenzanthracene (mitotic index 3.1) = 100%.

Where two headings read alike, the source gives them in different places.

With `C/C(=C\c1ccccc1)c1ccc2c(c1)C(C)(C)CCC2(C)C` [Compound Ia, 1,2,3,4-tetrahydro-1,1,4,4-tetramethyl-6-[(E)-alpha-methylstyryl]naphthalene], the “Effect on the lipid value in blood plasma” value in data set [1] (as a sole therapeutically active retinoid) was “no increase in the lipid value in blood plasma”. Besides, in data set [1] (blood plasma), the Lipid-lowering activity result is given as “possesses a lipid-lowering activity”. In addition, the “Triglyceride value in blood plasma” value stood at 56 ± 25 mg/100 ml in data set [1] (female rats, 10 mg/kg by probang, five times within 2 days (control 69 ± 28)); 72 ± 18 mg/100 ml in data set [1] (female rats, 100 mg/kg by probang, five times within 2 days (control 69 ± 28)); 30 ± 8 mg/100 ml in data set [1] (female rats, 1000 mg/kg by probang, five times within 2 days (control 69 ± 28)); 158 ± 56 mg/100 ml in data set [1] (male rats, 10 mg/kg by probang, five times within 2 days (control 201 ± 39)); 173 ± 18 mg/100 ml in data set [1] (male rats, 100 mg/kg by probang, five times within 2 days (control 201 ± 39)); 41 ± 19 mg/100 ml in data set [1] (male rats, 1000 mg/kg by probang, five times within 2 days (control 201 ± 39)). In addition, the activity at 1 µM worked out at 54% in data set [2] (setting [3]) and 45% in data set [2] (setting [4]). For the same compound, the figures for the activity at 0.1 µM in data set [2] (setting [3]) and in data set [2] (setting [4]) were 46% and 70%, respectively. Also, the activity at 0.01 µM in data set [2] (setting [3]) was 46%; in data set [2] (setting [4]), 74%. Further, the activity at 0.001 µM in data set [2] (setting [3]) was found to be 104%; in data set [2] (setting [4]), 75%.
